From US10428080B2, “TBK/IKK inhibitor compounds and uses thereof” (Merck Patent GmbH, priority 2015, dated 2019)
Where two headings read alike, the source gives them in different places.

Assays:
[1] = system: phosphorylation of the IRF-3 protein in MDA-MB-468 cells; assay: pIRF3 immunocytochemistry cell based assay; conditions: Homo sapiens
Outline: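 After 2 h stimulation with Poly(I:C) (10 ug/ml), following 1 h compound pre-treatment (10-point, 3-fold dilution, top 10 uM), MDA-MB-468 cells were fixed and stained with anti-pIRF3 antibody. pIRF3 fluorescence was normalized to PI staining or cell count on an Acumen cytometer. IC50 curves were derived from this.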

[2] = target: T1, TBK1 (Homo sapiens, UniProt Q9UHD2); assay: TBK Biochemical Assay; conditions: read-out: TBK1 IC50
T1 sequence (Q9UHD2 1-729): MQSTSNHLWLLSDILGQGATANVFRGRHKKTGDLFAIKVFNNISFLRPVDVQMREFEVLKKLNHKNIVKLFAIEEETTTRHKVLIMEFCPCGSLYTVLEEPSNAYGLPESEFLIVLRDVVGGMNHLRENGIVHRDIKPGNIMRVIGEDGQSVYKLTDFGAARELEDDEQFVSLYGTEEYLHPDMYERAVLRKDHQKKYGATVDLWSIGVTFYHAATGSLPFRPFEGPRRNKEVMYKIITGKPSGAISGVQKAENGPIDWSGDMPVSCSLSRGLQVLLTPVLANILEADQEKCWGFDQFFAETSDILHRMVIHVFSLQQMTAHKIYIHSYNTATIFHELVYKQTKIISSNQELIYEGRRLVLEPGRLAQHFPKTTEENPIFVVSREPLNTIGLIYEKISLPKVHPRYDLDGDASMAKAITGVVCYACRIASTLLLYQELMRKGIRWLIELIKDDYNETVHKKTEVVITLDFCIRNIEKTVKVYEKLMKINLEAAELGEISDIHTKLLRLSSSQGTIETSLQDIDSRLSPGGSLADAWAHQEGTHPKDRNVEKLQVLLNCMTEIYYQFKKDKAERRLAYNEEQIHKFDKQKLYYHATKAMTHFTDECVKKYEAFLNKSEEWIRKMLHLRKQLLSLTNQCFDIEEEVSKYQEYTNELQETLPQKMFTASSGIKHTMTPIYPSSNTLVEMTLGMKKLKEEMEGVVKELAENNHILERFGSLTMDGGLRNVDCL
Outline: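 Caliper LabChip mobility-shift readout of substrate and product after 90 min of TBK1 reaction at 25° C and stop-buffer addition. Compounds tested in 1:4 serial dilution over 10 points from 30 uM final at 1% DMSO; staurosporine 10 uM final defines full inhibition.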

[3] = target: T2, IKKε (Homo sapiens, UniProt Q14164); assay: IKKe Biochemical Assay; conditions: read-out: IKKε IC50
T2 sequence (Q14164 1-716): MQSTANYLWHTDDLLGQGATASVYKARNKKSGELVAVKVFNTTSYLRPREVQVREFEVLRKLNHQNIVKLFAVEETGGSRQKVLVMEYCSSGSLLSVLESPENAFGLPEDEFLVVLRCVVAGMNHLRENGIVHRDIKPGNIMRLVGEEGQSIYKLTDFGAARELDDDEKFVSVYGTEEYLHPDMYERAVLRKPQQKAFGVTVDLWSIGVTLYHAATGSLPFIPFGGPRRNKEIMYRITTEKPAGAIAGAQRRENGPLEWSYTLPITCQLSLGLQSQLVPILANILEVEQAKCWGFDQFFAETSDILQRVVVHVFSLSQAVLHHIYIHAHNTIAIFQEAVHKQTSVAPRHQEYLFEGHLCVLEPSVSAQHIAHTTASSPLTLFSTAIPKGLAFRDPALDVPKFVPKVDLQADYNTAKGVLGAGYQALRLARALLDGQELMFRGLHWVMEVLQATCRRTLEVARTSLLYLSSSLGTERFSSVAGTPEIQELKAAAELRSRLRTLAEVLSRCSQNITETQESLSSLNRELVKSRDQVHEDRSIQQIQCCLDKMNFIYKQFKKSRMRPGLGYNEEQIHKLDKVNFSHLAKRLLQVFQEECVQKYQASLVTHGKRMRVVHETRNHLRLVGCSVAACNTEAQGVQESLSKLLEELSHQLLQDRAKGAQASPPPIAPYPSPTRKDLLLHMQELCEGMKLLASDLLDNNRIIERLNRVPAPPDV
Outline: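 Activity was measured as mobility-shift separation of phosphorylated from unphosphorylated substrate on a LabChip EZ Reader. Compound was titrated from 30 uM final in 10 points, 1:4 steps, with 1% DMSO, and enzyme plus substrate reacted 90 min at 25° C before stop buffer. Control wells held 10 uM staurosporine.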

[4] = MDA-MB-468 cells, Poly(I:C) stimulation, read-out: pIRF3 IC50

Compound	IC50 [1, 4] [nM]	IC50 [2] [nM]	IC50 [3] [nM]	IC50 ([1]; MDA-MB-468, read-out: pIRF3 IC50) [nM]
COc1cc(C(=O)N[C@@H]2CN3CCC2CC3)ncc1-c1cc2nccc(-c3ccc(N4CC[C@@H](F)C4)c(C#N)c3)c2o1 [Compound 445, 5-{7-[3-Cyano-4-((R)-3-fluoro-pyrrolidin-1-yl)-phenyl]-furo[3,2-b]pyridin-2-yl}-4-methoxy-pyridine-2-carboxylic acid (1-aza-bicyclo[2.20.2]oct-3-yl)-amide]	< 100	< 100	< 100	
COc1cc(C(=O)N2CC[C@H](N(C)C)C2)cnc1-c1cc2nccc(-c3ccc(N4CC[C@H](F)C4)c(C#N)c3)c2o1 [Compound 447, 5-{2-[5-((S)-3-Dimethylamino-pyrrolidine-1-carbonyl)-3-methoxy-pyridin-2-yl]-furo[3,2-b]pyridin-7-yl}-2-((S)-3-fluoro-pyrrolidin-1-yl)-benzonitrile]	< 100	< 100	< 100	
COc1cc(C(=O)N2CC[C@H](N(C)C)C2)cnc1-c1cc2nccc(-c3ccc(N4CC[C@@H](F)C4)c(C#N)c3)c2o1 [Compound 448, 5-{2-[5-((S)-3-Dimethylamino-pyrrolidine-1-carbonyl)-3-methoxy-pyridin-2-yl]-furo[3,2-b]pyridin-7-yl}-2-((R)-3-fluoro-pyrrolidin-1-yl)-benzonitrile]	< 100	< 100	< 100	
COc1cc(C(=O)N2CC[C@H](N(C)C)C2)ncc1-c1cc2nccc(-c3ccc(N4CC[C@H](F)C4)c(C#N)c3)c2o1 [Compound 449, 5-[2-(6-[[(3S)-3-(dimethylamino)pyrrolidin-1-yl]carbonyl]-4-methoxypyridin-3-yl)furo[3,2-b]pyridin-7-yl]-2-[(3S)-3-fluoropyrrolidin-1-yl]benzonitrile]	< 100	< 100	< 100	
COc1cc(C(=O)N2CC[C@@H](N(C)C)C2)ncc1-c1cc2nccc(-c3ccc(N4CC[C@H](F)C4)c(C#N)c3)c2o1 [Compound 450, 5-[2-(6-[[(3R)-3-(dimethylamino)pyrrolidin-1-yl]carbonyl]-4-methoxypyridin-3-yl)furo[3,2-b]pyridin-7-yl]-2-[(3S)-3-fluoropyrrolidin-1-yl]benzonitrile]	100 to 1000	< 100	< 100	
COc1cc(C(=O)NC2C3COCC32)ncc1-c1cc2nccc(-c3ccc(N4CC[C@H](F)C4)c(C#N)c3)c2o1 (stereo partly drawn) [Compound 451, 5-(7-[3-cyano-4-[(3S)-3-fluoropyrrolidin-1-yl]phenyl]furo[3,2-b]pyridin-2-yl)-4-methoxy-N-[3-oxabicyclo[3.1.0]hexan-6-yl]pyridine-2-carboxamide]	100 to 1000	< 100	< 100	
COc1cc(C(=O)N2CC3CN(C)CC3C2)cnc1-c1cc2nccc(-c3ccc(N4CC[C@@H](F)C4)c(C#N)c3)c2o1 (stereo partly drawn) [Compound 452, 2-[(3R)-3-fluoropyrrolidin-1-yl]-5-[2-[3-methoxy-5-([5-methyl-octahydropyrrolo[3,4-c]pyrrol-2-yl]carbonyl)pyridin-2-yl]furo[3,2-b]pyridin-7-yl]benzonitrile]		< 100	< 100	100 to 1000
COc1cc(C(=O)N2CC[C@@H](N(C)C)C2)cnc1-c1cc2nccc(-c3ccc(N4CCC(F)C4)c(C#N)c3)c2o1 (stereo partly drawn) [Compound 454, 5-[2-(5-[[(3R)-3-(dimethylamino)pyrrolidin-1-yl]carbonyl]-3-methoxypyridin-2-yl)furo[3,2-b]pyridin-7-yl]-2-(3-fluoropyrrolidin-1-yl)benzonitrile]	100 to 1000	< 100	< 100	
COc1cc(C(=O)N2CC[C@@H](N(C)C)C2)cnc1-c1cc2nccc(-c3ccc(N4CC[C@H](F)C4)c(C#N)c3)c2o1 [Compound 455, 5-[2-(5-[[(3R)-3-(dimethylamino)pyrrolidin-1-yl]carbonyl]-3-methoxypyridin-2-yl) (S)-furo[3,2-b]pyridin-7-yl]-2-(3-fluoropyrrolidin-1-yl)benzonitrile]	< 100	< 100	< 100	
COc1cc(C(=O)N2CC[C@@H](N(C)C)C2)cnc1-c1cc2nccc(-c3ccc(N4CC[C@@H](F)C4)c(C#N)c3)c2o1 [Compound 456, 5-[2-(5-[[(3R)-3-(dimethylamino)pyrrolidin-1-yl]carbonyl]-3-methoxypyridin-2-yl) (R)-furo[3,2-b]pyridin-7-yl]-2-(3-fluoropyrrolidin-1-yl)benzonitrile]	< 100	< 100	< 100	
COc1cc(C(=O)N2CC[C@@H](N(C)C)C2)ncc1-c1cc2nccc(-c3ccc(N4CCC(F)C4)c(C#N)c3)c2o1 (stereo partly drawn) [Compound 457, 5-[2-(6-[[(3R)-3-(dimethylamino)pyrrolidin-1-yl]carbonyl]-4-methoxypyridin-3-yl)furo[3,2-b]pyridin-7-yl]-2-(3-fluoropyrrolidin-1-yl)benzonitrile]	< 100	< 100	< 100	
COc1cc(C(=O)N2CC[C@@H](N(C)C)C2)ncc1-c1cc2nccc(-c3ccc(N4CC[C@@H](F)C4)c(C#N)c3)c2o1 [Compound 459, 5-[2-(6-[[(3R)-3-(dimethylamino)pyrrolidin-1-yl]carbonyl]-4-methoxypyridin-3-yl)furo[3,2-b]pyridin-7-yl]-2-[(3R)-3-fluoropyrrolidin-1-yl]benzonitrile]	< 100	< 100	< 100	
COc1cc(C(=O)N2CCN(C)CC2)cnc1-c1cc2nccc(-c3ccc(N4CCC(F)C4)c(C#N)c3)c2o1 (stereo not drawn) [Compound 460, 2-(3-fluoropyrrolidin-1-yl)-5-(2-[3-methoxy-5-[(4-methylpiperazin-1-yl)carbonyl]pyridin-2-yl]furo[3,2-b]pyridin-7-yl)benzonitrile]	100 to 1000	< 100	< 100	
COc1cc(C(=O)N2CCN(C)CC2)cnc1-c1cc2nccc(-c3ccc(N4CC[C@H](F)C4)c(C#N)c3)c2o1 [Compound 461, 2-(3(S)-fluoropyrrolidin-1-yl)-5-(2-[3-methoxy-5-[(4-methylpiperazin-1-yl)carbonyl]pyridin-2-yl]furo[3,2-b]pyridin-7-yl)benzonitrile]	< 100	< 100	< 100	
COc1cc(C(=O)N2CCN(C)CC2)cnc1-c1cc2nccc(-c3ccc(N4CC[C@@H](F)C4)c(C#N)c3)c2o1 [Compound 462, 2-(3(R)-fluoropyrrolidin-1-yl)-5-(2-[3-methoxy-5-[(4-methylpiperazin-1-yl)carbonyl]pyridin-2-yl]furo[3,2-b]pyridin-7-yl)benzonitrile]	< 100	< 100	< 100	
COc1cc(C(=O)N2CCN(C)CC2)ncc1-c1cc2nccc(-c3ccc(N4CC[C@H](F)C4)c(C#N)c3)c2o1 [Compound 463, 2-((S)-3-Fluoro-pyrrolidin-1-yl)-5-{2-[4-methoxy-6-(4-methyl-piperazine-1-carbonyl)-pyridin-3-yl]-furo[3,2-b]pyridin-7-yl}-benzonitrile]	< 100	< 100	< 100	
